Experimental data published in article PMC9698663, “Testing Serum Albumins and Cyclodextrins as Potential Binders of the Mycotoxin Metabolites Alternariol-3-Sulfate, Alternariol-9-Monomethylether and Alternariol-9-Monomethylether-3-Sulfate” (International Journal of Molecular Sciences, 2022).
Where a name gives a salt, the structure may show the parent alone. Read-outs that look alike come from different tables or passages of the source.

Experiments:
[1] = Fluorescence spectroscopic study of mycotoxin–SGD complexes; assay type: binding; settings: for SGD logK (±SEM) BH-Plot / SGD logK (±SEM) Hyperquad: binding constant K in L/mol; for SGD logK (±SEM) BH-Plot: Benesi–Hildebrand plot; for SGD logK (±SEM) BH-Plot / SGD logK (±SEM) Hyperquad / logK with SGD (approximate): sodium acetate buffer pH 5.0; for logK of mycotoxin–SGD complexes at pH 10.0: sodium borate buffer pH 10.0
Procedure: (§1) Fluorescence emission spectra were collected employing a Hitachi F-4500 fluorescence spectrophotometer (Tokyo, Japan) at 25 °C and in the presence of air. UV–Vis absorption spectra of AS, AME, and AMS were recorded using a Jasco V730 UV–Vis spectrophotometer (Tokyo, Japan). In fluorescence spectroscopic studies, the inner-filter effects of mycotoxins were corrected as has been previously reported.
(§2) To examine the interaction of mycotoxins with the two CDs selected (SBECD and SGD), increasing amounts of the CDs (final concentrations: 0–10 mM) were added to mycotoxins (each 1 μM), then fluorescence emission spectra were recorded (λex = 335 nm for AS/AMS and 350 nm for AME; λem = 455 nm for AS, 485 nm for AME, and 460 nm for AMS). Binding constants (K, unit: L/mol) of mycotoxin–CD complexes were calculated employing the graphical application of the Benesi–Hildebrand equation (linear fitting) and using Hyperquad software (non-linear fitting). The Benesi–Hildebrand equation [25, 43] has been described as:(2) F0/F−F0=1/A+1/A×K×CD^n where, F0 and F are the fluorescence emission intensities of the mycotoxin in the absence and presence of CDs, respectively. [CD] is the molar concentration (mol/L) of the CD, while A is a constant, and n is the number of binding sites. Hyperquad evaluations were performed as has been previously reported.

[2] = target: T1, human serum albumin (HSA) (Homo sapiens, UniProt P02768); assay: Ultracentrifugation studies (unbound fraction in presence of HSA); assay type: binding; design: purchased Merck (Darmstadt, Germany)
Procedure: To confirm the results of the quenching studies, the unbound fractions of AS, AME, and AMS were quantified in the presence of HSA. Applying the optimal conditions of ultracentrifugation, we can sediment albumin and albumin-bound molecules without the disruption of ligand–HSA interactions, then the free unbound fraction of the ligand molecule can be quantified from the protein-free supernatant. Samples contained AS, AME, or […] (each 10 μM) with HSA (20, 60, and 180 μM) in PBS (pH 7.4). These samples (900 μL) were centrifuged for 16 h at 170,000 g and 20 °C in 11 × 34 mm PC tubes (Beckman Coulter, Brea, CA, US), employing a Beckman Coulter Optima MAX-XP tabletop ultracentrifuge (with MLA-130 fixed-angle rotor). Then the concentrations of AS, AME, and AMS were directly analyzed from the supernatants with HPLC-FLD (see details in Section 3.7).
Assuming the 1:1 stoichiometry of complex formation, the binding constants (K) were calculated based on the following equation [36]:(3) K=MA/M×A where [M], [A], and [MA] are the molar concentrations (mol/L) of the free unbound mycotoxin, the free unbound albumin, and the mycotoxin–albumin complex, respectively.

[3] = target: T2, porcine serum albumin (PSA) (Sus scrofa, UniProt P08835); assay: Fluorescence quenching of porcine serum albumin by mycotoxins; assay type: binding; settings: for PSA logKSV (±SEM): Stern–Volmer quenching constant KSV in L/mol, linear fitting
T2 construct: purchased Merck (Darmstadt, Germany)
Procedure: as §1
(§3) Then, fluorescence quenching studies were also performed, where increasing amounts of AS, AME, or AMS (final concentrations: 0–5 μM) were added to 2 μM concentrations of albumins (HSA, BSA, PSA, or RSA), after which emission spectra were recorded (λex = 295 nm). After the correction of the inner-filter effects, mycotoxin-induced changes were evaluated at 340 nm.
(§4) Quenching experiments were evaluated by employing the graphical application of the Stern–Volmer equation (linear fitting) and using HyperQuad2006 software (non-linear fitting). Stern–Volmer quenching constants (KSV; unit: L/mol) were determined based on the Stern–Volmer equation [30]:(1) I0/I=1+KSV×Q where I0 and I are the fluorescence emission intensities of albumin in the absence and presence of the quencher (mycotoxins), respectively; [Q] is the molar (mol/L) concentration of mycotoxins. Binding constants (K; unit: L/mol) were calculated using HyperQuad2006 software, as has been previously reported.

[4] = target: T1, human serum albumin (HSA); assay: Fluorescence quenching of human serum albumin by mycotoxins; assay type: binding; design: purchased Merck (Darmstadt, Germany); settings: for HSA logKSV (±SEM): Stern–Volmer quenching constant KSV in L/mol, linear fitting
Procedure: as §1, §3, §4

rat serum albumin (RSA) [5] = target: T3, rat serum albumin (RSA) (Rattus norvegicus, UniProt P02770); assay: Fluorescence quenching of rat serum albumin by mycotoxins; assay type: binding; settings: for RSA logKSV (±SEM): Stern–Volmer quenching constant KSV in L/mol, linear fitting
T3 construct: purchased Merck (Darmstadt, Germany)
Procedure: as §1, §3, §4

[6] = target: T4, bovine serum albumin (BSA) (Bos taurus, UniProt P02769); assay: Fluorescence quenching of bovine serum albumin by mycotoxins; assay type: binding; settings: for BSA logKSV (±SEM): Stern–Volmer quenching constant KSV in L/mol, linear fitting; for effect of environmental pH on binding to BSA: pH 5.0, 6.5, 7.4, 8.5, AME: pH 8.5 vs acidic and physiological conditions
T4 construct: purchased Merck (Darmstadt, Germany)
Procedure: as §1, §3, §4

[7] = Fluorescence spectroscopic study of mycotoxin–SBECD complexes; assay type: binding; settings: for SBECD logK (±SEM) BH-Plot / SBECD logK (±SEM) Hyperquad: binding constant K in L/mol; for SBECD logK (±SEM) BH-Plot: Benesi–Hildebrand plot; for SBECD logK (±SEM) BH-Plot / SBECD logK (±SEM) Hyperquad / logK with SBECD (approximate): sodium acetate buffer pH 5.0
Procedure: as §1, §2

[8] = target: T1, human serum albumin (HSA); assay: Ultrafiltration studies with Site I, Site II and Heme site markers; assay type: binding; design: purchased Merck (Darmstadt, Germany); settings: mycotoxin 20 μM, PBS pH 7.4; for effect on filtered fraction of S-camptothecin (Heme site marker): camptothecin 1.0 μM + HSA 2.0 μM; for effect on filtered fraction of naproxen (Site II marker): naproxen 1.0 μM + HSA 1.5 μM; for effect on filtered fraction of warfarin (Site I marker): warfarin 1.0 μM + HSA 5.0 μM
Procedure: To test the binding sites of mycotoxin metabolites on HSA, ultrafiltration experiments were performed, where warfarin, naproxen, and S-camptothecin were used as Site I, Site II, and Heme site markers, respectively. Ultrafiltration studies were performed as described earlier, with minor modifications. Briefly, warfarin and naproxen samples were filtered using Amicon Ultra centrifugal filters (Merck, Darmstadt, Germany) with a 30 kDa molecular weight cut-off (MWCO) value. Camptothecin barely passed through these filters; therefore, the displacement of this Heme site marker was examined employing Pall Microsep Advance centrifugal devices (MWCO: 10 kDa; VWR, Budapest, Hungary). Each filter unit was washed once with water and once with PBS (pH 7.4). Thereafter, samples were centrifuged with a fixed angle rotor for 10 min at 7500 g and 25 °C. Before ultrafiltration, samples contained warfarin (1.0 μM) + HSA (5.0 μM), naproxen (1.0 μM) + HSA (1.5 μM), or camptothecin (1.0 μM) + HSA (2.0 μM) in the absence and presence of AS, AME, or AMS (each 20 μM) in PBS (pH 7.4). The filters used retain HSA (66.5 kDa) and albumin-bound ligands. Therefore, the elevated concentration of the site marker in the filtrate indicates its displacement from the protein [30, 36]. The concentrations of warfarin and camptothecin in the filtrate were analyzed by HPLC-FLD, while naproxen was quantified by HPLC-UV as has been previously reported.

[9] = target: T1, human serum albumin (HSA); design: purchased Merck (Darmstadt, Germany); method as in PMID 31083629; settings: previous study; cited from earlier work
rat serum albumin (RSA) [10] = target: T3, rat serum albumin (RSA); design: method as in PMID 31083629; settings: previous study; cited from earlier work
[11] = target: T1, human serum albumin (HSA); settings: cited from earlier work
[12] = mycotoxin 10 μM, HSA 20, 60, 180 μM, PBS pH 7.4, Equation (3), 1:1 stoichiometry, read-out: logK of mycotoxin–HSA complexes (ultracentrifugation) (converted)
[13] = binding constant K in L/mol, fluorescence quenching, Hyperquad non-linear fitting, read-out: PSA logK (±SEM) (converted)
[14] = binding constant K in L/mol, fluorescence quenching, Hyperquad non-linear fitting, PBS pH 7.4, read-out: HSA logK (±SEM) (converted)
[15] = binding constant K in L/mol, fluorescence quenching, Hyperquad non-linear fitting, read-out: RSA logK (±SEM) (converted)
[16] = binding constant K in L/mol, fluorescence quenching, Hyperquad non-linear fitting, read-out: BSA logK (±SEM) (converted)

T3 sequence (P02770 25-608): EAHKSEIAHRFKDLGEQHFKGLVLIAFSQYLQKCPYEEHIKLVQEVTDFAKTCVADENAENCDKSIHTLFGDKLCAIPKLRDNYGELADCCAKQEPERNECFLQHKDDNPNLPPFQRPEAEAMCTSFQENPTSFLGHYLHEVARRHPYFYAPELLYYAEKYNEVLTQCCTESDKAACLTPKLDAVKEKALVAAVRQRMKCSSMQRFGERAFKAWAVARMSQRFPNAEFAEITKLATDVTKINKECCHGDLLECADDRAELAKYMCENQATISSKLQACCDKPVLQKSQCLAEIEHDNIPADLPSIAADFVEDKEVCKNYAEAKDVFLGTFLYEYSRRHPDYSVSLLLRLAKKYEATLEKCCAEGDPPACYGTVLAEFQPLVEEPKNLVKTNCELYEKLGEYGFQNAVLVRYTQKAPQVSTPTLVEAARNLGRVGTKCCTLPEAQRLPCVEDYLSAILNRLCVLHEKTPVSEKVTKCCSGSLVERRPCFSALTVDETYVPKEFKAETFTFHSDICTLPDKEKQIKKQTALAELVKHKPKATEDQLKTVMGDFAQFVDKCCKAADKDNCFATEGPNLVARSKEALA
T2 sequence (P08835 25-607): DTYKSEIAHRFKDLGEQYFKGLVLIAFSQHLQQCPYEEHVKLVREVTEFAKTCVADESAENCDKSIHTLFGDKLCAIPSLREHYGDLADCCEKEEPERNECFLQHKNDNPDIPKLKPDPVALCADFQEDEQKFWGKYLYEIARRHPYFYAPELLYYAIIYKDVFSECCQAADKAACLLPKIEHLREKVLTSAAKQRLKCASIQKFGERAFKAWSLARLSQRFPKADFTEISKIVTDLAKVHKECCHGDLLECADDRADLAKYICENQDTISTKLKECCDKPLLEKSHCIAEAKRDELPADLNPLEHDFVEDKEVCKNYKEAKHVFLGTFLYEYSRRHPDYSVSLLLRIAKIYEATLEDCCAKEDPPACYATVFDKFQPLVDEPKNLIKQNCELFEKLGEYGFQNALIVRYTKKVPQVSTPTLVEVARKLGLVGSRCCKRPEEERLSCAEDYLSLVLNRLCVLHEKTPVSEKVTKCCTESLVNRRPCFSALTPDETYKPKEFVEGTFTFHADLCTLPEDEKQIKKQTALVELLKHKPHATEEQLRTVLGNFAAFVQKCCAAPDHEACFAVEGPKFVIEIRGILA
T1 sequence (P02768 25-609): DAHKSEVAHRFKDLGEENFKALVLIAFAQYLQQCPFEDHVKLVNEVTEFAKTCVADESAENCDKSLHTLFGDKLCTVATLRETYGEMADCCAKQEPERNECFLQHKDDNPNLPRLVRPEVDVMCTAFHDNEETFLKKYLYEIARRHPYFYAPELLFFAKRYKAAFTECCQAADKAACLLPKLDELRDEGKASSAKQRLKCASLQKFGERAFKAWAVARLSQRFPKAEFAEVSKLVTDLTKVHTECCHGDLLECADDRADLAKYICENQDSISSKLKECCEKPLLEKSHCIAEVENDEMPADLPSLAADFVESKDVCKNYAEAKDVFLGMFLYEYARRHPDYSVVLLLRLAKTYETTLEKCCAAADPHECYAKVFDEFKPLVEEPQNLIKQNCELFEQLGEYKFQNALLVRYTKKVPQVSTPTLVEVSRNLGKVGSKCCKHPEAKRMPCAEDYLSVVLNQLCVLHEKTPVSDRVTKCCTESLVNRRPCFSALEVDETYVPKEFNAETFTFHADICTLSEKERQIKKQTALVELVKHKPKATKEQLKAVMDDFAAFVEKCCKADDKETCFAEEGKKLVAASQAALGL
T4 sequence (P02769 25-607): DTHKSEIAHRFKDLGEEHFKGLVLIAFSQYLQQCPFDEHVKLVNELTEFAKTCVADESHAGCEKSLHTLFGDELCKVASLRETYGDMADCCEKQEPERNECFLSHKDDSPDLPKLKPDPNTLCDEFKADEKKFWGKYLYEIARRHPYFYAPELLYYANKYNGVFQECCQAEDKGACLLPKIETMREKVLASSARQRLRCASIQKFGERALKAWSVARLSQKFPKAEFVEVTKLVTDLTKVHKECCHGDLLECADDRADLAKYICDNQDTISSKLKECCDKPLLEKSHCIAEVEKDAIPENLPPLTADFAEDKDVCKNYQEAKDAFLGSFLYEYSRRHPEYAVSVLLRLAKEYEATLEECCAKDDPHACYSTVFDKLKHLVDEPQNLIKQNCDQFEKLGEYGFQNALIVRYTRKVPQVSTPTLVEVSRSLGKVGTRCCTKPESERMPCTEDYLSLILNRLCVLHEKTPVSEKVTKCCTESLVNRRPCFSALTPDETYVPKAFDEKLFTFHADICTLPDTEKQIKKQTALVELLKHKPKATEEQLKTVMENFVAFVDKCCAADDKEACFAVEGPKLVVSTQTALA

Row | Structure (SMILES) | SGD logK (±SEM) BH-Plot [1] | SGD logK (±SEM) Hyperquad [1] | logK of mycotoxin–SGD complexes at pH 10.0 [1] | PSA logKSV (±SEM) [3] | HSA logKSV (±SEM) ([4]; PBS pH 7.4) | RSA logKSV (±SEM) (rat serum albumin (RSA) [5]) | BSA logKSV (±SEM) [6] | effect of environmental pH on binding to BSA [6] | SBECD logK (±SEM) BH-Plot [7] | SBECD logK (±SEM) Hyperquad [7] | effect on filtered fraction of S-camptothecin (Heme site marker) [8] | effect on filtered fraction of naproxen (Site II marker) [8] | effect on filtered fraction of warfarin (Site I marker) [8] | logK with SGD (approximate) [1] | Kd [2, 12] [µM] | Kd [3, 13] [nM] | Kd [4, 14] [nM] | Kd (rat serum albumin (RSA) [5]; [15]) [nM] | Kd [6, 16] [nM] | logK with SBECD (approximate) [7] | further results
1 | COc1cc(O)c2c(=O)oc3cc(O)cc(C)c3c2c1 [AME, alternariol-9-monomethylether] | 3.95 ± 0.01 | 4.06 ± 0.01 | 4.25 ± 0.06 | 4.73 ± 0.06 | 4.86 ± 0.05 | 5.15 ± 0.06 | 4.93 ± 0.05 | approximately ten-fold higher affinity | 3.46 ± 0.01 | 3.56 ± 0.01 | no or only slight effects | no or only slight effects | statistically significant (p < 0.05) impact | – | – | – | – | – | – | – | stability of AME–SGD complex compared to CD complexes of the sulfate metabolites ([1]; pH 5.0): ten-fold; Kd [2]: 4.57 µM; Kd [3]: 14800 nM; Kd [4]: 11500 nM; Kd (rat serum albumin (RSA) [5]): 5130 nM; Kd [6]: 9120 nM; stability of AME–SBECD complex compared to CD complexes of the sulfate metabolites ([7]; pH 5.0): three-fold
2 | Cc1cc(O)cc2oc(=O)c3c(O)cc(O)cc3c12 [AOH, Alternariol] | – | – | – | – | – | – | – | – | – | – | – | – | – | – | – | – | – | – | – | – | displacement of naproxen (Site II marker) from HSA [9]: slightly displaced; displacement of warfarin (Site I marker) from HSA [9]: strongly displaced; effect on filtered fraction of camptothecin (Heme site marker) [9]: did not affect; affinity for rat albumin compared to human or porcine albumins (rat serum albumin (RSA) [10]): almost eight-fold higher affinity; logK of AOH–HSA complex [11]: 5.6
3 | Cc1cc(OS(=O)(=O)O)cc2oc(=O)c3c(O)cc(O)cc3c12 [AS, Alternariol-3-sulfate ammonium salt] | 2.83 ± 0.01 | 2.99 ± 0.03 | 3.18 ± 0.58 | 5.57 ± 0.02 | 5.44 ± 0.07 | 5.85 ± 0.03 | 5.60 ± 0.01 | only minor changes | 3.02 ± 0.01 | 3.02 ± 0.03 | marked increases | lower but significant (p < 0.01) effect | marked increases | ≈ 3 | 3.16 | 1660 | 2450 | 832 | 1620 | ≈ 3 | –
4 | COc1cc(O)c2c(=O)oc3cc(OS(=O)(=O)O)cc(C)c3c2c1 [AMS, alternariol-9-monomethylether-3-sulfate ammonium salt] | 2.95 ± 0.05 | 3.21 ± 0.04 | 3.39 ± 0.10 | 5.60 ± 0.02 | 5.42 ± 0.06 | 5.92 ± 0.03 | 5.81 ± 0.01 | only minor changes | 2.96 ± 0.01 | 3.08 ± 0.01 | large | moderate | did not affect | ≈ 3 | 3.24 | 1660 | 2630 | 741 | 933 | ≈ 3 | –
